Laboratory results reported in patent publication US20240300944A1, “NOVEL UREA DERIVATIVE COMPOUND AS RON INHIBITOR” (LG CHEM, LTD., priority 2021, published 2024).
pIC50: −log10 of the molar value.

Legend:
cMET = cMET (Homo sapiens, UniProt P08581); experiment: Inhibitory activity against MET (cMET), TR-FRET kinase assay; format: biochemical; details: cMET enzyme
Description: In addition, in order to measure the enzyme activity inhibition for cMET, the evaluation was performed in the same manner as the enzyme activity inhibition measurement experiment for the RON.
(§1) Specifically, the compound was prepared to a concentration of 1 mM with 100% DMSO and was diluted 10 times in a stepwise manner through 3-fold dilution. 2 ul of the compound diluted in a stepwise manner was added to a 96-well-plate containing 48 ul of a 1× kinase reaction buffer (50 mM HEPES (pH 7.4), 0.05% BSA, 0.005% Tween-20, 1 mM DTT, 0.5 mM MnCl2, 20 mM MgCl2).
The cMET protein was diluted to a concentration of 263 nM with a cMET storage buffer (50 mM Tris-HCl (pH 7.5), 150 mM NaCl, 0.05% Brij35, 1 mM DTT, 10% Glycerol), and then diluted again to a concentration of 2 nM with a 1× kinase reaction buffer. As a substrate cocktail, a MET-specific substrate mixture (5 uM TK peptide, […]) at a concentration 2 times the final reaction concentration.
Thereafter, a 384-well-plate was prepared, and 2.5 μl of each of the diluted compounds of Examples was added to a corresponding well of experimental group wells, and 2.5 μl of a 4% DMSO solution was dispensed into high control wells and low control wells.
(§2) Thereafter, 2.5 μL of 2 nM cMET was dispensed into the high control wells and the experimental group wells, and 2.5 μL of a 1× kinase reaction buffer was added to the low control wells, and the […] and the reaction buffer were centrifuged at room temperature for 40 seconds at 1000 RPM, and then incubated at room temperature for 20 to 30 minutes. Then, 5 μL of a substrate cocktail (2×) was dispensed into all wells, centrifuged at room temperature for 40 seconds at 1000 RPM, and then incubated at room temperature for 60 minutes. Thereafter, 5 μL of 90 mM EDTA was added to all wells to terminate the reaction, and then incubated again at room temperature for 5 minutes. Thereafter, 5 μL of a 4× phosphotyrosine antibody (Perkin Elmer) containing europium was added to all wells, and then incubated at room temperature for 60 minutes. After the incubation, the 384-well-plate was read with a Vison plate reader. At this time, the excitation wavelength was 340 nm, and the emission wavelength was 620 nm and 665 nm. The IC50 value of the compound of each Example was derived using the GraphPd Prism7 program.

RON = RON (Homo sapiens, UniProt Q04912); experiment: Inhibitory activity against RON, TR-FRET kinase assay; format: biochemical; details: RON enzyme
Sequence of RON (Q04912 25-1400, species assumed): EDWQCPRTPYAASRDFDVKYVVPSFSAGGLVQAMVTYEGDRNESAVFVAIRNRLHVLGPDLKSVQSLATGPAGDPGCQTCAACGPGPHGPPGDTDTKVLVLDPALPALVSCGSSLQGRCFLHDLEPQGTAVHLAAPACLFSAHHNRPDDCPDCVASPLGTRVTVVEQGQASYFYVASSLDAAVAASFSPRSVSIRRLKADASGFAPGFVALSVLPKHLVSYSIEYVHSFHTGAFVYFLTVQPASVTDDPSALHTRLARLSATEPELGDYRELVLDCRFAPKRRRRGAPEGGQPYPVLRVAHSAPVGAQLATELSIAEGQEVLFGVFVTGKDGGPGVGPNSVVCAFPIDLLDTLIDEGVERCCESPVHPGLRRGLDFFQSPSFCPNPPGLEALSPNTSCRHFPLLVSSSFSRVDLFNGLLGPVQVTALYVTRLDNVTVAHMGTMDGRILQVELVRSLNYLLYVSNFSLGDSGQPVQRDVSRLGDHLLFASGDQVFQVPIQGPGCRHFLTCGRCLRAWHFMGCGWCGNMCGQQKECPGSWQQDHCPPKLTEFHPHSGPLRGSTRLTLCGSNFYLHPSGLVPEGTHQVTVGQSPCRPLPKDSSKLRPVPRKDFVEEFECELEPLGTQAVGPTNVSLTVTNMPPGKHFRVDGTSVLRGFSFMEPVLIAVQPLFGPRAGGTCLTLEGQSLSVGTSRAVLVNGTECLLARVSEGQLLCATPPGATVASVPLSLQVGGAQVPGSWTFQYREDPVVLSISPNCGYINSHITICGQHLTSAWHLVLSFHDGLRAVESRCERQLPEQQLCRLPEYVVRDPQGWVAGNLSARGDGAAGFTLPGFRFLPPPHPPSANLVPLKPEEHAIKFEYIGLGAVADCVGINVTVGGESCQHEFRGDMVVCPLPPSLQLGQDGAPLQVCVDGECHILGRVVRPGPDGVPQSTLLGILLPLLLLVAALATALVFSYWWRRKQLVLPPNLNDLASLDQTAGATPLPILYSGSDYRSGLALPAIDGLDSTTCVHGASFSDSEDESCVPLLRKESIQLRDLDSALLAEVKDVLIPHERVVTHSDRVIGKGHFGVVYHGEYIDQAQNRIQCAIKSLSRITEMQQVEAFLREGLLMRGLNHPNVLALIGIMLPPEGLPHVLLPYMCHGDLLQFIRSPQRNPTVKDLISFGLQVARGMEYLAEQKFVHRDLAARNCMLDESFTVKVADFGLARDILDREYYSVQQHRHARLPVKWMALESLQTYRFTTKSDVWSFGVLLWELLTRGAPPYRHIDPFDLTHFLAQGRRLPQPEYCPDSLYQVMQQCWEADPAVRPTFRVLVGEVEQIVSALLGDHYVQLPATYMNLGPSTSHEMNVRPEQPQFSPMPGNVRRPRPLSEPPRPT
Description: In order to measure the inhibitory activity of each of the compounds of Examples against RON, the IC50 of each of the compounds was measured using a Time-Resolved Fluorescence Energy Transfer Chemistry (TR-FRET).
as §1, with “7.4), 0.01%” for “7.4), 0.05% BSA, 0.005%”, “Tween-20, 5” for “Tween-20, 1”, “mM Na3VO4, 2 mM EGTA, 10” for “mM MnCl2, 20”
The RON protein was diluted to a concentration of 49.3 nM with an RON storage buffer (50 mM Tris-HCl (pH 7.5), 150 mM NaCl, 0.5 mM EDTA, 0.02% Triton X-100), and then diluted again to a concentration of 0.4 nM with a 1× kinase reaction buffer. As a substrate cocktail, a RON-specific substrate mixture (40 uM ULight-labeled Poly GT, 100 nM ATP) at a concentration 2 times the final reaction concentration.
Thereafter, a 384-well-plate was prepared, and 2.5 ul of each of the diluted compounds of Examples was added to a corresponding well of experimental group wells, and 2.5 ul of a 4% DMSO solution was dispensed into high control wells and low control wells.
as §2, with “of 0.4” for “of 2”, “nM RON” for “nM cMET”, “of 30” for “of 90”

Sequence of cMET (P08581 25-1390): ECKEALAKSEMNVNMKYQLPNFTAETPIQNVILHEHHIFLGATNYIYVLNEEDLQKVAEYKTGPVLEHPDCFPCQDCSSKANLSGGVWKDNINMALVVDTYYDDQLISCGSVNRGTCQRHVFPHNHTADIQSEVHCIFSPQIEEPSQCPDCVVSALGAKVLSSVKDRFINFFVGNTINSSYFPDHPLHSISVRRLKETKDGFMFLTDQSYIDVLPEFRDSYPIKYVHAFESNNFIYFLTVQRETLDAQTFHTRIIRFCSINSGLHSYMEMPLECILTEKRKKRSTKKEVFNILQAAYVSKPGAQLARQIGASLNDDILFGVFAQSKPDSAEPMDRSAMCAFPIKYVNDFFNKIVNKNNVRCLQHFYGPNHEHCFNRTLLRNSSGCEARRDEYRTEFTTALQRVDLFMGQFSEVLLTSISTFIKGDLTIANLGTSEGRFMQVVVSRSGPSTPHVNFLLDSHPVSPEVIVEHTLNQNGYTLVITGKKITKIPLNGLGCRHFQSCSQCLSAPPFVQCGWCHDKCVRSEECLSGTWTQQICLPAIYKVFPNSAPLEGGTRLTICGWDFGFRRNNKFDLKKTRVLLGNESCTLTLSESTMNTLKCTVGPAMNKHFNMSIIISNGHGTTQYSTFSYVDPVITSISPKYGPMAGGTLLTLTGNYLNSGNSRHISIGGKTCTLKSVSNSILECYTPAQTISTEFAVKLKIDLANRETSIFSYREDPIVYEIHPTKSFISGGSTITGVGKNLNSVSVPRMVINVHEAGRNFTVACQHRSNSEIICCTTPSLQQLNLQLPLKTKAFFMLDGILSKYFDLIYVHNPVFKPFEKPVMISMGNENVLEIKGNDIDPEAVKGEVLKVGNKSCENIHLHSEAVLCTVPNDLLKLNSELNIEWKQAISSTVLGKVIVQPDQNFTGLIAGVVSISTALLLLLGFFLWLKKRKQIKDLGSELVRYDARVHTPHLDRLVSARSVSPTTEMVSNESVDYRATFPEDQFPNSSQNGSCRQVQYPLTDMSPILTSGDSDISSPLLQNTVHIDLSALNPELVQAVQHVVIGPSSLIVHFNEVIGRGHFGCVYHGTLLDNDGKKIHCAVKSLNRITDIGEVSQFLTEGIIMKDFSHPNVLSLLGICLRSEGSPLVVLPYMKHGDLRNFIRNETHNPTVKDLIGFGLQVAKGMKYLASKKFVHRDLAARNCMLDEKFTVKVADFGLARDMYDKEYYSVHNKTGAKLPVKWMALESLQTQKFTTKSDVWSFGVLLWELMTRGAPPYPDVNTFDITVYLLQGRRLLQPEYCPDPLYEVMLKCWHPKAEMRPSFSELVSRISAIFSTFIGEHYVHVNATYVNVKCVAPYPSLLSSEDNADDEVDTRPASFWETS

pIC50 (cMET) | pIC50 (RON) | SMILES
< 5.30 | > 7.30 | O=C(Nc1ccc(Oc2ccnc3[nH]c(=O)[nH]c23)c(F)c1)c1ncn(-c2ccccc2)c1C(F)(F)F [Example 1, N-(3-fluoro-4-((2-oxo-2,3-dihydro-1H-imidazo[4,5-b]pyridine-7-yl)oxy)phenyl)-1-phenyl-5-(trifluoromethyl)-1H-imidazole-4-carboxamide]
< 5.30 | > 7.30 | O=C(Nc1ccc(Oc2ccnc3[nH]c(=O)[nH]c23)c(F)c1)c1cnn(-c2ccccc2)c1C(F)(F)F [Example 2, N-(3-fluoro-4-((2-oxo-2,3-dihydro-1H-imidazo[4,5-b]pyridine-7-yl)oxy)phenyl)-1-phenyl-5-(trifluoromethyl)-1H-pyrazole-4-carboxamide]
< 5.30 | > 7.30 | CCn1c(=O)[nH]c2nccc(Oc3ccc(NC(=O)c4ncn(-c5ccccc5)c4C(F)(F)F)cc3F)c21 [Example 3, N-(4-((1-ethyl-2-oxo-2,3-dihydro-1H-imidazo[4,5-b]pyridine-7-yl)oxy)-3-fluorophenyl)-1-phenyl-5-(trifluoromethyl)-1H-imidazole-4-carboxamide]
< 5.30 | > 7.30 | CCn1c(=O)[nH]c2nccc(Oc3ccc(NC(=O)c4cnn(-c5ccccc5)c4C(F)(F)F)cc3F)c21 [Example 4, N-(4-((1-ethyl-2-oxo-2,3-dihydro-1H-imidazo[4,5-b]pyridine-7-yl)oxy)-3-fluorophenyl)-1-phenyl-5-(trifluoromethyl)-1H-pyrazole-4-carboxamide]
< 5.30 | > 7.30 | Cn1c(=O)[nH]c2nccc(Oc3ccc(NC(=O)c4ncn(-c5ccccc5)c4C(F)(F)F)cc3F)c21 [Example 5, N-(3-fluoro-4-((1-methyl-2-oxo-2,3-dihydro-1H-imidazo[4,5-b]pyridine-7-yl)oxy)phenyl)-1-phenyl-5-(trifluoromethyl)-1H-imidazole-4-carboxamide]
< 5.30 | > 7.30 | Cn1c(=O)[nH]c2nccc(Oc3ccc(NC(=O)c4cnn(-c5ccccc5)c4C(F)(F)F)cc3F)c21 [Example 6, N-(3-fluoro-4-((1-methyl-2-oxo-2,3-dihydro-1H-imidazo[4,5-b]pyridine-7-yl)oxy)phenyl)-1-phenyl-5-(trifluoromethyl)-1H-pyrazole-4-carboxamide]
5.30 to 6.30 | > 7.30 | CC(C)n1c(=O)[nH]c2nccc(Oc3ccc(NC(=O)c4cnn(-c5ccccc5)c4C(F)(F)F)cc3F)c21 [Example 7, N-(3-fluoro-4-((1-isopropyl-2-oxo-2,3-dihydro-1H-imidazo[4,5-b]pyridine-7-yl)oxy)phenyl)-1-phenyl-5-(trifluoromethyl)-1H-pyrazole-4-carboxamide]
< 5.30 | > 7.30 | CC(C)n1c(=O)[nH]c2nccc(Oc3ccc(NC(=O)c4ncn(-c5ccccc5)c4C(F)(F)F)cc3F)c21 [Example 8, N-(3-fluoro-4-((1-isopropyl-2-oxo-2,3-dihydro-1H-imidazo[4,5-b]pyridine-7-yl)oxy)phenyl)-1-phenyl-5-(trifluoromethyl)-1H-imidazole-4-carboxamide]
< 5.30 | 6.30 to 7.30 | CCc1c(C(=O)Nc2ccc(Oc3ccnc4[nH]c(=O)[nH]c34)c(F)c2)cnn1-c1ccccc1 [Example 9, 5-ethyl-N-(3-fluoro-4-((2-oxo-2,3-dihydro-1H-imidazo[4,5-b]pyridine-7-yl)oxy)phenyl)-1-phenyl-1H-pyrazole-4-carboxamide]
5.30 to 6.30 | > 7.30 | CCc1c(C(=O)Nc2ccc(Oc3ccnc4[nH]c(=O)n(C(C)C)c34)c(F)c2)cnn1-c1ccccc1 [Example 10, 5-ethyl-N-(3-fluoro-4-((1-isopropyl-2-oxo-2,3-dihydro-1H-imidazo[4,5-b]pyridine-7-yl)oxy)phenyl)-1-phenyl-1H-pyrazole-4-carboxamide]
< 5.30 | > 7.30 | O=C(Nc1ccc(Oc2ccnc3[nH]c(=O)n(C4CCOCC4)c23)c(F)c1)c1ncn(-c2ccccc2)c1C(F)(F)F [Example 11, N-(3-fluoro-4-((2-oxo-1-(tetrahydro-2H-pyran-4-yl)-2,3-dihydro-1H-imidazo[4,5-b]pyridine-7-yl)oxy)phenyl)-1-phenyl-5-(trifluoromethyl)-1H-imidazole-4-carboxamide]
< 5.30 | 6.30 to 7.30 | Cc1nn(-c2ccccc2)c(C)c1C(=O)Nc1ccc(Oc2ccnc3[nH]c(=O)[nH]c23)c(F)c1 [Example 12, N-(3-fluoro-4-((2-oxo-2,3-dihydro-1H-imidazo[4,5-b]pyridine-7-yl)oxy)phenyl)-3,5-dimethyl-1-phenyl-1H-pyrazole-4-carboxamide]
6.30 to 7.30 | > 7.30 | Cc1nn(-c2ccccc2)c(C)c1C(=O)Nc1ccc(Oc2ccnc3[nH]c(=O)n(C(C)C)c23)c(F)c1 [Example 13, N-(3-fluoro-4-((1-isopropyl-2-oxo-2,3-dihydro-1H-imidazo[4,5-b]pyridine-7-yl)oxy)phenyl)-3,5-dimethyl-1-phenyl-1H-pyrazole-4-carboxamide]
5.30 to 6.30 | > 7.30 | Cc1c(C(=O)Nc2ccc(Oc3ccnc4[nH]c(=O)n(C(C)C)c34)c(F)c2)cnn1-c1ccccc1 [Example 14, N-(3-fluoro-4-((1-isopropyl-2-oxo-2,3-dihydro-1H-imidazo[4,5-b]pyridine-7-yl)oxy)phenyl)-5-methyl-1-phenyl-1H-pyrazole-4-carboxamide]
< 5.30 | 6.30 to 7.30 | CC(C)n1c(=O)[nH]c2nccc(Oc3ccc(NC(=O)c4cnc(-c5ccccc5)s4)cc3F)c21 [Example 15, N-(3-fluoro-4-((1-isopropyl-2-oxo-2,3-dihydro-1H-imidazo[4,5-b]pyridine-7-yl)oxy)phenyl)-2-phenylthiazole-5-carboxamide]
< 5.30 | 6.30 to 7.30 | CC(C)n1c(=O)[nH]c2nccc(Oc3ccc(NC(=O)c4ncc(-c5ccccc5)s4)cc3F)c21 [Example 16, N-(3-fluoro-4-((1-isopropyl-2-oxo-2,3-dihydro-1H-imidazo[4,5-b]pyridine-7-yl)oxy)phenyl)-5-phenylthiazole-2-carboxamide]
< 5.30 | 6.30 to 7.30 | Cc1ccc(-n2ncc(C(=O)Nc3ccc(Oc4ccnc5[nH]c(=O)n(C(C)C)c45)c(F)c3)c2C(F)(F)F)cc1 [Example 17, N-(3-fluoro-4-((1-isopropyl-2-oxo-2,3-dihydro-1H-imidazo[4,5-b]pyridine-7-yl)oxy)phenyl)-1-(p-tolyl)-5-(trifluoromethyl)-1H-pyrazole-4-carboxamide]
5.30 to 6.30 | 6.30 to 7.30 | COc1ccccc1-n1ncc(C(=O)Nc2ccc(Oc3ccnc4[nH]c(=O)n(C(C)C)c34)c(F)c2)c1C(F)(F)F [Example 18, N-(3-fluoro-4-((1-isopropyl-2-oxo-2,3-dihydro-1H-imidazo[4,5-b]pyridine-7-yl)oxy)phenyl)-1-(2-methoxyphenyl)-5-(trifluoromethyl)-1H-pyrazole-4-carboxamide]
